Data taken from patent US20200247812A1 (Integral Biosciences Private Limited, priority 2018, published 2020).

target: T1, ALK 5 (Homo sapiens, UniProt P36897); experiment: In vitro kinase assay (ALK5 IC50, LanthaScreen Terbium labeled TR-FRET); assay type: biochemical; conditions: TGF-β kinase 6 nM, ATP 10 μM, read-out: Enzyme Activity ALK 5 IC50
T1 sequence (P36897 34-503): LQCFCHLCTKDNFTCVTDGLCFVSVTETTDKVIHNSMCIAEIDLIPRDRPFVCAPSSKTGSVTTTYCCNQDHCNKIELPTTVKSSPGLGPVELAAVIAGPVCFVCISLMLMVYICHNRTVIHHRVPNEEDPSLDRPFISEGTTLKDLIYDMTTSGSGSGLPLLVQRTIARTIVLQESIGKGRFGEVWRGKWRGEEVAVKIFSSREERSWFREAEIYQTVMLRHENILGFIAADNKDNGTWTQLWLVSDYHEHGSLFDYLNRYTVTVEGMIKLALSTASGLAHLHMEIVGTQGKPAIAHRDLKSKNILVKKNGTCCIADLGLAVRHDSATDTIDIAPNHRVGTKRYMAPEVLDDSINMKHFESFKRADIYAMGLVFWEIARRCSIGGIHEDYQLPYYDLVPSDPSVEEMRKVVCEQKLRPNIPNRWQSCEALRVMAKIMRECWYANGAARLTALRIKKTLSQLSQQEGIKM
Protocol: Compounds of the invention were screened in an in vitro kinase assay against ALK 5, a members of the TGF-β family of Ser/Thr kinases. Standard kinase testing conditions and techniques were employed. IC50 values of compounds against TGF-ß kinase was determined by LanthaScreen™ Terbium Labeled TR-FRET assay. Kinase assays were performed in 1X kinase buffer (# PV6135, Invitrogen, Life Technologies Grand Island, N.Y.) where total reaction volume was 10 μL in low-volume 384-well plates (#4511, Corning). Serially diluted compounds (3-fold) were incubated with TGF-β kinase (6 nM) for 10 min, following which a mixture of ATP (10 μM) (# A1852, Sigma, St-Louis, Mo.) and fluorescent-PolyGT substrate (200 nM); Cat # PV3610, Invitrogen, Life Technologies Grand Island, N.Y.) was added and incubated in dark at room temperature for 1 h. After 1 h, 10 μL stop solution containing Terbium labeled antibody (4 nM; Cat # PV3529, Invitrogen, Life Technologies Grand Island, N.Y.) and EDTA (# E5134, Sigma, St-Louis, Mo.; 20 mM) in TR-FRET dilution buffer (Cat # PV3574, Invitrogen, Life Technologies Grand Island, N.Y.) was added. Readings were taken in a Synergy Neo Plate reader (BioTek, Winooski) at single excitation of 340 nm and Dual emission at 495 nm and 520 nm respectively.
The % activity of test samples was calculated as (Sample-Min)×100/(Max −Min). [Max: DMSO control, complete reaction with enzyme with DMSO and Min: No enzyme with DMSO]. Percent inhibition (100-% activity) was fitted to the “four-parameter logistic model” in XLfit for determination of IC50 values.

First: CC(O)CNC(=O)c1cnccc1Nc1c[nH]c(=O)c(-c2cc(Cl)ccc2F)c1 (stereo not drawn) [Compound 1.1, 4-((5-(5-chloro-2-fluorophenyl)-6-oxo-1,6-dihydropyridin-3-yl)amino)-N-(2-hydroxypropyl)nicotinamide]
Second: C[C@@H](CO)NC(=O)c1cnccc1Nc1c[nH]c(=O)c(-c2cc(Cl)ccc2F)c1 [Compound 1.2, (S)-4-((5-(5-chloro-2-fluorophenyl)-6-oxo-1,6-dihydropyridin-3-yl)amino)-N-(1-hydroxypropan-2-yl)nicotinamide]
The IC50 of the first is lower: 2 to 5 µM for the first, > 5 µM for the second.

Compared with `CC(C)c1[nH]c(=O)c(-c2ccccc2F)cc1Nc1ccncc1C(=O)NC[C@H](C)O` [Compound 1.3, (S)-4-((5-(2-fluorophenyl)-2-isopropyl-6-oxo-1,6-dihydropyridin-3-yl)amino)-N-(2-hydroxypropyl)nicotinamide], `CC(C)c1[nH]c(=O)c(-c2cc(Cl)ccc2F)cc1Nc1ccncc1C(=O)N[C@@H](C)CO` [Compound 1.6] is lower in IC50: 2 to 5 µM for the first, 0.5 to 2 µM for the second.

`C[C@H](O)CNC(=O)c1cnccc1Nc1cc(-c2cc(Cl)ccc2F)c(=O)n(C)c1` [Compound 1.7, (S)-4-((5-(5-chloro-2-fluorophenyl)-1-methyl-6-oxo-1,6-dihydropyridin-3-yl)amino)-N-(2-hydroxypropyl)nicotinamide] and `C[C@@H](CO)NC(=O)c1cnccc1Nc1cc(-c2cc(Cl)ccc2F)c(=O)n(C)c1` [Compound 1.8, (S)-4-((5-(5-chloro-2-fluorophenyl)-1-methyl-6-oxo-1,6-dihydropyridin-3-yl)amino)-N-(1-hydroxypropan-2-yl)nicotinamide] cannot be ordered by IC50: > 5 µM for the first, > 5 µM for the second.

First: C[C@H](O)CNC(=O)c1cnccc1Nc1cc(-c2cc(Cl)ccc2F)c(=O)[nH]c1N(C)C [Compound 1.9, (S)-4-((5-(5-chloro-2-fluorophenyl)-2-(dimethylamino)-6-hydroxypyridin-3-yl)amino)-N-(2-hydroxypropyl)nicotinamide]
Second: CN(C)c1[nH]c(=O)c(-c2cc(Cl)ccc2F)cc1Nc1ccncc1C(=O)NC(CO)CO [Compound 1.11]
The IC50 of the first is lower: 2 to 5 µM for the first, > 5 µM for the second.

First: Cc1cccc(-c2cc(Nc3ccnc4[nH]ccc34)c(N(C)C)[nH]c2=O)n1 [Compound 1.13, 5′-((1H-pyrrolo[2,3-b]pyridin-4-yl)amino)-6′-(dimethylamino)-6-methyl-[2,3′-bipyridin]-2′(1′H)-one]
Second: Cc1cccc(-c2cc(Nc3ccncc3C(=O)NC[C@H](C)O)c(N(C)C)[nH]c2=O)n1 [Compound 1.27, (S)-4-((6′-(dimethylamino)-6-methyl-2′-oxo-1′,2′-dihydro-[2,3′-bipyridin]-5′-yl)amino)-N-(2-hydroxypropyl)nicotinamide]
The IC50 of the first is lower: 2 to 5 µM for the first, > 5 µM for the second.

`CN(C)c1[nH]c(=O)c(-c2cc(Cl)ccc2F)cc1Nc1ccncc1` [Compound 1.14, 3-(5-chloro-2-fluorophenyl)-6-(dimethylamino)-5-(pyridin-4-ylamino)pyridin-2(1H)-one] and `CN(C)c1[nH]c(=O)c(-c2cc(Cl)ccc2F)cc1Nc1ccncc1C(F)(F)F` [Compound 1.15, 3-(5-chloro-2-fluorophenyl)-6-(dimethylamino)-5-((3-(trifluoromethyl)pyridin-4-yl)amino)pyridin-2(1H)-one] cannot be ordered by IC50: > 5 µM for the first, > 5 µM for the second.

`CN(C)c1[nH]c(=O)c(-c2cc(Cl)ccc2F)cc1Nc1ccnc2ccccc12` [Compound 1.16, 3-(5-chloro-2-fluorophenyl)-6-(dimethylamino)-5-(quinolin-4-ylamino)pyridin-2(1H)-one] and `CN(C)c1[nH]c(=O)c(-c2cc(Cl)ccc2F)cc1Nc1ccnc2c1ccn2C` [Compound 1.28, 3-(5-chloro-2-fluorophenyl)-6-(dimethylamino)-5-((1-methyl-1H-pyrrolo[2,3-b]pyridin-4-yl)amino)pyridin-2(1H)-one] cannot be ordered by IC50: > 5 µM for the first, > 5 µM for the second.

`C[C@@H](CO)NC(=O)c1cnccc1Nc1cc(-c2cc(Cl)ccc2F)c(=O)n(C)c1N(C)C` [Compound 1.17, (S)-4-((5-(5-chloro-2-fluorophenyl)-2-(dimethylamino)-1-methyl-6-oxo-1,6-dihydropyridin-3-yl)amino)-N-(1-hydroxypropan-2-yl)nicotinamide] and `C[C@@H](CO)NC(=O)c1cnccc1Nc1cc(-c2cc(Cl)ccc2F)c(=O)n2c1N(C)CC2` [Compound 1.22, (S)-4-((6-(5-chloro-2-fluorophenyl)-1-methyl-5-oxo-1,2,3,5-tetrahydroimidazo[1,2-a]pyridin-8-yl)amino)-N-(1-hydroxypropan-2-yl)nicotinamide] fall in the same range of IC50: 2 to 5 µM for the first, 2 to 5 µM for the second.

Compared with `CN1CCn2c1c(Nc1ccnc3[nH]ccc13)cc(-c1cc(Cl)ccc1F)c2=O` [Compound 1.18, 8-((1H-pyrrolo[2,3-b]pyridin-4-yl)amino)-6-(5-chloro-2-fluorophenyl)-1-methyl-2,3-dihydroimidazo[1,2-a]pyridin-5(1H)-one], `C[C@H](CO)NC(=O)c1cnccc1Nc1cc(-c2cc(Cl)ccc2F)c(=O)n2c1N(C)CC2` [Compound 1.23, (R)-4-((6-(5-chloro-2-fluorophenyl)-1-methyl-5-oxo-1,2,3,5-tetrahydroimidazo[1,2-a]pyridin-8-yl)amino)-N-(1-hydroxypropan-2-yl)nicotinamide] is higher in IC50: ≤ 0.5 µM for the first, > 5 µM for the second.

Compared with `C[C@H](O)CNC(=O)c1cnccc1Nc1cc(-c2cc(Cl)ccc2F)c(=O)n2c1N(C)CC2` [Compound 1.19, (S)-4-((6-(5-chloro-2-fluorophenyl)-1-methyl-5-oxo-1,2,3,5-tetrahydroimidazo[1,2-a]pyridin-8-yl)amino)-N-(2-hydroxypropyl)nicotinamide], `C[C@@H](O)CNC(=O)c1cnccc1Nc1cc(-c2cc(Cl)ccc2F)c(=O)n2c1N(C)CC2` [Compound 1.24, (R)-4-((6-(5-chloro-2-fluorophenyl)-1-methyl-5-oxo-1,2,3,5-tetrahydroimidazo[1,2-a]pyridin-8-yl)amino)-N-(2-hydroxypropyl)nicotinamide] is higher in IC50: 2 to 5 µM for the first, > 5 µM for the second. The first is the more potent here.

`C[C@H](O)CNC(=O)c1cnccc1Nc1cc(-c2cc(Cl)ccc2F)c(=O)n2c1N(C)CCC2` [Compound 1.20, (S)-4-((7-(5-chloro-2-fluorophenyl)-1-methyl-6-oxo-1,3,4,6-tetrahydro-2H-pyrido[1,2-a]pyrimidin-9-yl)amino)-N-(2-hydroxypropyl)nicotinamide] and `C[C@@H](O)CNC(=O)c1cnccc1Nc1cc(-c2cc(Cl)ccc2F)c(=O)n2c1N(C)CCC2` [Compound 1.26, (R)-4-((7-(5-chloro-2-fluorophenyl)-1-methyl-6-oxo-1,3,4,6-tetrahydro-2H-pyrido[1,2-a]pyrimidin-9-yl)amino)-N-(2-hydroxypropyl)nicotinamide] cannot be ordered by IC50: > 5 µM for the first, > 5 µM for the second.

Compared with `C[C@@H](CO)NC(=O)c1cnccc1Nc1cc(-c2cc(Cl)ccc2F)c(=O)n2c1N(C)CCC2` [Compound 1.21, (S)-4-((7-(5-chloro-2-fluorophenyl)-1-methyl-6-oxo-1,3,4,6-tetrahydro-2H-pyrido[1,2-a]pyrimidin-9-yl)amino)-N-(1-hydroxypropan-2-yl)nicotinamide], `C[C@H](CO)NC(=O)c1cnccc1Nc1cc(-c2cc(Cl)ccc2F)c(=O)n2c1N(C)CCC2` [Compound 1.25, (R)-4-((7-(5-chloro-2-fluorophenyl)-1-methyl-6-oxo-1,3,4,6-tetrahydro-2H-pyrido[1,2-a]pyrimidin-9-yl)amino)-N-(1-hydroxypropan-2-yl)nicotinamide] is higher in IC50: 0.5 to 2 µM for the first, > 5 µM for the second.
